Assay results as given in ChEMBL document CHEMBL1201862, “PubChem BioAssay data set” (2004).
Values joined by “and” are separate entries in the source; they are usually repeats but may differ in a detail not shown here. Equal entries are not always repeated.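 Five concentrations, 48 hours, 96-well plates. GI50 marks 50% less growth.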 Active and inactive are the calls of the source. Rule as the data show it: active = GI50 up to about 1.1 µM and inactive = higher.

Key:
Assay in all cases: DTP human tumour cell line panel, 48 h
HCT-116 = system: HCT-116
EKVX = system: EKVX
SNB-75 = system: SNB-75
IGROV-1 = system: IGROV-1
SF-268 = system: SF-268
ACHN = system: ACHN
MDA-MB-435 = system: MDA-MB-435
OVCAR-4 = system: OVCAR-4
HOP-62 = system: HOP-62
NCI-H460 = system: NCI-H460
HCT-15 = system: HCT-15
Hs-578T = system: Hs-578T
UACC-62 = system: UACC-62
HT-29 = system: HT-29
Malme-3M = system: Malme-3M
SN12C = system: SN12C
TK-10 = system: TK-10
SK-MEL-5 = system: SK-MEL-5
RPMI-8226 = system: RPMI-8226
NCI-H226 = system: NCI-H226

SMILES | GI50 (HCT-116) | GI50 (EKVX) | GI50 (SNB-75) | GI50 (IGROV-1) | GI50 (SF-268) | GI50 (ACHN) | GI50 (MDA-MB-435) | GI50 (OVCAR-4) | GI50 (HOP-62) | GI50 (NCI-H460) | GI50 (HCT-15) [µM] | GI50 (Hs-578T) | GI50 (UACC-62) | GI50 (HT-29) | GI50 (Malme-3M) | GI50 (SN12C) | GI50 (TK-10) | GI50 (SK-MEL-5) | GI50 (RPMI-8226) | GI50 (NCI-H226)
CCOC(=O)N/N=C(/N)c1cccc([N+](=O)[O-])c1 | > 100 µM (inactive) | > 100 µM (inactive) | 80.2 µM (inactive) | > 100 µM (inactive) | > 100 µM (inactive) | > 100 µM (inactive) | > 100 µM (inactive) | > 100 µM (inactive) | > 100 µM (inactive) | > 100 µM (inactive) | > 100 | > 100 µM (inactive) | > 100 µM (inactive) | > 100 µM (inactive) | > 100 µM (inactive) | > 100 µM (inactive) | > 100 µM (inactive) | > 100 µM (inactive) |  | 
CN(C)CCNC(=O)c1nc([N+](=O)[O-])cn1C | > 100 µM (inactive) |  | > 100 µM (inactive) | > 100 µM (inactive) | > 100 µM (inactive) | > 100 µM (inactive) | > 100 µM (inactive) | > 100 µM (inactive) | > 100 µM (inactive) | > 100 µM (inactive) | > 100 | > 100 µM (inactive) | > 100 µM (inactive) | > 100 µM (inactive) | > 100 µM (inactive) | > 100 µM (inactive) | > 100 µM (inactive) | > 100 µM (inactive) | > 100 µM (inactive) | 
N#CC1(C#N)C2CCCCC23OC(=N)C1(C#N)C(c1ccccc1)O3 (stereo unspecified) | 17 µM (inactive) | 23.5 µM (inactive) | 0.213 µM (active) | 19 µM (inactive) | 2.49 µM (inactive) | 36.1 µM (inactive) | 25.6 µM (inactive) |  |  | 19 µM (inactive) | 12.4 | 0.302 µM (active) | 17.9 µM (inactive) | 18.2 µM (inactive) | 17 µM (inactive) | 13.1 µM (inactive) | 16.6 µM (inactive) | 16.1 µM (inactive) |  | > 100 µM (inactive)
CC#CC#C/C=C1\C=CC2(OC=CC2OC(C)=O)O1 (stereo unspecified) |  | 29.9 µM (inactive) and > 40 µM (inactive) | 38.3 µM (inactive) and 24.9 µM (inactive) | > 42.9 µM (inactive) and 42 µM (inactive) | 23.7 µM (inactive) and 19.4 µM (inactive) | 10.4 µM (inactive) | 29.4 µM (inactive) |  | > 100 µM (inactive) | 32.3 µM (inactive) and 21.7 µM (inactive) |  | 27.4 µM (inactive) | 18.9 µM (inactive) and 16.4 µM (inactive) | 16.1 µM (inactive) and 22.4 µM (inactive) | 24.8 µM (inactive) and 26.4 µM (inactive) | 15.7 µM (inactive) and 16.5 µM (inactive) | 34 µM (inactive) and 28.1 µM (inactive) | 17.9 µM (inactive) | 23.2 µM (inactive) | 
CC(=O)C1C(=O)C(=O)N(c2ccc([N+](=O)[O-])cc2[N+](=O)[O-])C1=O (stereo unspecified) | > 100 µM (inactive) | 56.5 µM (inactive) | > 100 µM (inactive) | > 100 µM (inactive) | > 100 µM (inactive) | > 100 µM (inactive) | > 100 µM (inactive) | > 100 µM (inactive) | > 100 µM (inactive) | > 100 µM (inactive) | > 100 | > 100 µM (inactive) | > 100 µM (inactive) | > 100 µM (inactive) |  | > 100 µM (inactive) | 80.4 µM (inactive) | > 100 µM (inactive) |  | > 100 µM (inactive)
O=C(CSCC(=O)N/N=C\c1cccc(Br)c1)N/N=C\c1cccc(Br)c1 | 14.8 µM (inactive) | 27.1 µM (inactive) | 18.1 µM (inactive) | 17.1 µM (inactive) | 14.1 µM (inactive) | 13.6 µM (inactive) | 18.5 µM (inactive) | 20.1 µM (inactive) | 17.4 µM (inactive) | 25.2 µM (inactive) | 21.2 | 18.2 µM (inactive) | 14.7 µM (inactive) | 23.1 µM (inactive) | 0.182 µM (active) | 16.2 µM (inactive) | 11.6 µM (inactive) | 19.1 µM (inactive) |  | 15.7 µM (inactive)
